From US20260234140A1, “PYRIDOPYRIMIDINE DERIVATIVE AND USE THEREOF” (SUNSHINE LAKE PHARMA CO., LTD., priority 2023, published 2026)

Assays:
[1] = Pharmacokinetics experiment in SD rats; assay type: in vivo; conditions: male SD rats; for AUC(0-t) / Cmax / half-life / clearance / Vd: rat, plasma; for Vd: read-out: Vss
Protocol: Experiment 2: Pharmacokinetics Experiment
1) Preparation of the compound solutions of Example 1 and Example 17: The test compound was prepared into a solution using 10% dimethyl sulfoxide, 10% Kolliphor HS15 and 80% physiological saline; Preparation of the compound solution of Example 11: The compound to be tested is prepared into a solution with 5% dimethyl sulfoxide, 5% Kolliphor HS15 and 90% saline for oral administration or intravenous injection.
2) Male SD rats weighing 250-345 g were randomly divided into two groups. One group was intravenously injected with the test compound at a dose of 1.0 mg/kg, and the other group was orally administered with the test compound at a dose of 5.0 mg/kg. Blood was collected at 0.083, 0.25, 0.5, 1, 2, 5, 7 and 24 hours after administration.
3) A standard curve of an appropriate range was established according to the sample concentration, and the concentration of the test compound in the plasma sample was determined in the MRM mode using an AB SCIEX Q TRAP 4000 LC-MS/MS. The pharmacokinetic parameters were calculated using the non-compartmental model method using WinNonLin 6.3 software.

[2] = test system: PD1/PD-L1 pathway; experiment: PD1/PD-L1 Blockade Bioassay, inhibition of the PD1/PD-L1 pathway at the cellular level (luciferase reporter, PD-1 Jukat T cells co-cultured with PD-L1 aAPC/CHO-K1 cells); assay type: cell-based; conditions: T-cell; for EC50: PD-1 Jukat T cells + PD-L1 aAPC/CHO-K1 cells, 6 h co-culture, ONE-Glo luciferase readout; for Emax: maximum % Activity relative to atezolizumab (set to 100%)
Protocol: Experiment 1: Detecting the Inhibitory Activity of Compounds on the PD1/PD-L1 Pathway at the Cellular Level Using the PD1/PD-L1 Blockade Bioassay Method
PD-1 Jukat T cells were revived and cultured with 1640 medium containing 100 μg/mL Hygromycin B, […] Puromycin, 10% FBS and 1% dual antibody; PD-L1 aAPC/CHO-K1 cells were revived and cultured with F12K medium containing 100 μg/mL Hygromycin B, 200 μg/mL G418, 10% FBS and 1% dual antibody.
The revived cells need to be passaged 2-3 times. When the cells enter the exponential growth phase with good growth status, the PD-L1 aAPC/CHO-K1 was digested with trypsin, and the cells were resuspended in F12K containing 5% FBS and adjusted to a density of 5×10^5 cells/mL. 20 μl/well were plated in a 384-well plate (10,000 cells/well) and incubated in an incubator overnight for 16-20 h.
a Preparation of compound stock solution: Dissolve the compound to be tested in DMSO to prepare a 20 mM stock solution.
b Compound gradient dilution: dilute the compound in 1640 medium containing 5% FBS without antibiotics or phenol red, and make 3-fold gradient dilutions to prepare 10 concentration gradients (2×).
c Adding drugs: Take out the cell culture plate, discard the supernatant, add 20 μl/well of the prepared compound, and incubate in the incubator for 1.5 h.
PD-1 Jukat T cells were collected, washed once with PBS, and resuspended in 1640 medium containing 5% FBS without antibiotics or phenol red. The density was adjusted to 1×10^6 cells/mL. 20 μl PD-1 Jukat T cells (20,000 cells/well) were added to each well and incubated in the incubator for 6 h.
ONE-Glo™ Luciferase Assay reagent was thawed to room temperature in advance and then added to a 384-well plate at 40 µl/well. Incubate in the dark for 15 minutes and read the […] signal on a plate reader.
[formula] • Among them, % Activity: % Activity • RLU: Resulting Luminescence unit • RLUvehicle: Average RLU value of negative control wells on each plate • RLUpositive: Average RLU value of positive control wells on each plate • Vehicle control: DMSO (0.1%) corresponding to the test value was used as negative control (its % Activity was 0%); • Positive control: The highest detection value at the atezolizumab administration concentration was used as the positive control (its % Activity was 100%). • (2) EC50 value calculation method: The EC50 value was obtained by the nonlinear fitting formula of Graph Pad Prism 8.0 software. The calculation formula is as follows:
Y=Bottom+(Top−Bottom)/(1+10^((Log EC50−X)×HillSlope)) • X: log of activator concentration (logarithm of compound concentration); Y: % Activity • (3) Emax definition: The maximum % Activity value corresponding to the maximum activation value of the compound relative to atezolizumab (the activation value is set to 100%).

SMILES | F ([1]; ig (oral), 5 mg/kg) | AUC(0-t) ([1]; ig (oral), 5 mg/kg) | Cmax ([1]; ig (oral), 5 mg/kg) | half-life ([1]; ig (oral), 5 mg/kg) | AUC(0-t) ([1]; iv, 1 mg/kg) | Cmax ([1]; iv, 1 mg/kg) | clearance ([1]; iv, 1 mg/kg) | half-life ([1]; iv, 1 mg/kg) | Vd ([1]; iv, 1 mg/kg) | EC50 [2] | Emax [2]
COc1nc(-c2cccc(-c3cccc(Nc4nc(C(F)F)nc5cc(CN6CC[C@@H](O)C6)cnc45)c3C)c2Cl)ccc1CN(C)C[C@H]1CC[C@H](C(=O)O)CC1 [Example 17, (1r,4r)-4-((((6-(2-chloro-3′-((2-(difluoromethyl)-7-(((R)-3-hydroxypyrrolidin-1-yl)methyl)pyrido[3,2-d]pyrimidin-4-yl)amino)-2′-methyl-[1,1′-biphenyl]-3-yl)-2-methoxypyridin-3-yl)methyl)(methyl)amino)methyl)cyclohexane-1-carboxylic acid] | 55% | 27000 ng·h/mL | 1980 ng/mL | – | 9760 ng·h/mL | 675 ng/mL | 1.6 mL/min/kg | 450 min | 0.95 L/kg | 109 nM | 94.1%
[2H]C([2H])([2H])N(Cc1ncc(-c2cccc(-c3cccc(Nc4nc(C(F)F)nc5cc(CN6CC[C@@H](O)C6)cnc45)c3C)c2Cl)cc1OC)C[C@H]1CC[C@H](C(=O)O)CC1 [Example 38, (1r,4r)-4-((((5-(2-chloro-3′-((2-(difluoromethyl)-7-(((R)-3-hydroxypyrrolidin-1-yl)methyl)pyrido[3,2-d]pyrimidin-4-yl)amino)-2′-methyl-[1,1′-biphenyl]-3-yl)-3-methoxypyridin-2-yl)methyl)(methyl-d3)amino)methyl)cyclohexane-1-carboxylic acid] | 57.8% | 25900 ng·h/mL | 1850 ng/mL | 366 min | 8890 ng·h/mL | 621 ng/mL | 1.7 mL/min/kg | 396 min | 0.91 L/kg | – | –
COc1nc(-c2cccc(-c3cccc(Nc4nc(C(F)F)nc5cc(CN6CC[C@@H](O)C6)cnc45)c3C)c2Cl)ccc1CN1CCC(C(=O)O)CC1 [Example 40, (R)-1-((6-(2-chloro-3′-((2-(difluoromethyl)-7-((3-hydroxypyrrolidin-1-yl)methyl)pyrido[3,2-d]pyrimidin-4-yl)amino)-2′-methyl-[1,1′-biphenyl]-3-yl)-2-methoxypyridin-3-yl)methyl)piperidine-4-carboxylic acid] | 23% | 15100 ng·h/mL | 1260 ng/mL | 246 min | 12900 ng·h/mL | 1870 ng/mL | 1.3 mL/min/kg | 270 min | 0.43 L/kg | 57.7 nM | 121%

Continued by falling EC50 [2], values first:

F ([1]; ig (oral), 5 mg/kg) | AUC(0-t) ([1]; ig (oral), 5 mg/kg) | Cmax ([1]; ig (oral), 5 mg/kg) | half-life ([1]; ig (oral), 5 mg/kg) | AUC(0-t) ([1]; iv, 1 mg/kg) | Cmax ([1]; iv, 1 mg/kg) | clearance ([1]; iv, 1 mg/kg) | half-life ([1]; iv, 1 mg/kg) | Vd ([1]; iv, 1 mg/kg) | EC50 [2] | SMILES | Emax [2]
32% | 12300 ng·h/mL | 935 ng/mL | 294 min | 7710 ng·h/mL | 877 ng/mL | 2.1 mL/min/kg | 324 min | 0.82 L/kg | 44 nM | COc1nc(-c2cccc(-c3cccc(Nc4nc(C(F)F)nc5cc(CN6CC[C@@H](O)C6)cnc45)c3C)c2Cl)ccc1CN(C)[C@H]1CC[C@H](C(=O)O)CC1 [Example 1, (1r,4r)-4-(((6-(2-chloro-3′-((2-(difluoromethyl)-7-(((R)-3-hydroxypyrrolidin-1-yl)methyl)pyrido[3,2-d]pyrimidin-4-yl)amino)-2′-methyl-[1,1′-biphenyl]-3-yl)-2-methoxypyridin-3-yl)methyl)(methyl)amino)cyclohexane-1-carboxylic acid] | 98.2%
52.9% | 16700 ng·h/mL | 1630 ng/mL | 258 min | 6370 ng·h/mL | 1100 ng/mL | 2.6 mL/min/kg | 234 min | 0.75 L/kg | 20.4 nM | COc1nc(-c2cccc(-c3cccc(Nc4nc(C(F)F)nc5cc(CN6CC[C@@H](O)C6)cnc45)c3C)c2Cl)cnc1CN(C)[C@H]1CC[C@H](C(=O)O)CC1 [Example 11, (1r,4r)-4-(((5-(2-chloro-3′-((2-(difluoromethyl)-7-(((R)-3-hydroxypyrrolidin-1-yl)methyl)pyrido[3,2-d]pyrimidin-4-yl)amino)-2′-methyl-[1,1′-biphenyl]-3-yl)-3-methoxypyrazin-2-yl)methyl)(methyl)amino)cyclohexane-1-carboxylic acid] | 98.5%
